Source: PubChem BioAssay AID1963846 (Molecular Pharmacology Branch, DTP, NCI, 2024)
pIC50: −log10 of the molar value.

Test system: 454973-116-R2-J3-PDC complex spheroid viability
Test: Anticancer human tumor 454973-116-R2-J3-PDC patient-derived pancreatic carcinoma cell line growth inhibition [POLQ]
Details: for pIC50: curve of first compound; for viability, T/C: stronger effect = lower value
How it was run: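 Complex spheroid viability model combining PDC tumour cells with endothelial (HUVEC) and MSC stromal cells. Novobiocin, ART-558 or RP6685 were tested singly and in combination with standard and investigational anticancer drugs. Each was titrated in half-log steps from near clinical Cmax, or from 10 microM where Cmax was unknown.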

[1] = second compound 0.0316 µM, first compound 0.0316 µM
[2] = second compound 0.0316 µM, first compound 0.1 µM
[3] = second compound 0.0316 µM, first compound 0.316 µM
[4] = second compound 0.0316 µM, first compound 1 µM
[5] = second compound 0.0316 µM, first compound 3.16 µM
[6] = second compound 0.0316 µM, first compound 10 µM
[7] = second compound 0.1 µM, first compound 0.0316 µM
[8] = second compound 0.1 µM, first compound 0.1 µM
[9] = second compound 0.1 µM, first compound 0.316 µM
[10] = second compound 0.1 µM, first compound 1 µM
[11] = second compound 0.1 µM, first compound 3.16 µM
[12] = second compound 0.1 µM, first compound 10 µM
[13] = second compound 0.316 µM, first compound 0.0316 µM
[14] = second compound 0.316 µM, first compound 0.1 µM
[15] = second compound 0.316 µM, first compound 0.316 µM
[16] = second compound 0.316 µM, first compound 1 µM
[17] = second compound 0.316 µM, first compound 3.16 µM
[18] = second compound 0.316 µM, first compound 10 µM
[19] = second compound 1 µM, first compound 0.0316 µM
[20] = second compound 1 µM, first compound 0.1 µM
[21] = second compound 1 µM, first compound 0.316 µM
[22] = second compound 1 µM, first compound 1 µM
[23] = second compound 1 µM, first compound 3.16 µM
[24] = second compound 1 µM, first compound 10 µM
[25] = second compound 3.16 µM, first compound 0.0316 µM
[26] = second compound 3.16 µM, first compound 0.1 µM
[27] = second compound 3.16 µM, first compound 0.316 µM
[28] = second compound 3.16 µM, first compound 1 µM
[29] = second compound 3.16 µM, first compound 3.16 µM
[30] = second compound 3.16 µM, first compound 10 µM
[31] = second compound 10 µM, first compound 0.0316 µM
[32] = second compound 10 µM, first compound 0.1 µM
[33] = second compound 10 µM, first compound 0.316 µM
[34] = second compound 10 µM, first compound 1 µM
[35] = second compound 10 µM, first compound 3.16 µM
[36] = second compound 10 µM, first compound 10 µM
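Note: spheroids exposed to drugs for seven days before measurement.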
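Throughout, for viability, T/C: percent viability relative to DMSO vehicle control wells taken as 100%.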

COc1cc2cc(C(=O)CCC(=O)O)sc2cc1OC + Nc1ccc(C#CCN(C(=O)Cc2ncc(C(F)(F)F)cc2C(F)(F)F)c2ccc(F)cc2)nn1
pIC50 (second compound 0.0316 µM): < 5.00
pIC50 (second compound 0.1 µM): < 5.00
pIC50 (second compound 0.316 µM): < 5.00
pIC50 (second compound 1 µM): < 5.00
pIC50 (second compound 3.16 µM): < 5.00
pIC50 (second compound 10 µM): < 5.00
viability, T/C [1]: 96.7%
viability, T/C [2]: 101%
viability, T/C [3]: 112%
viability, T/C [4]: 101%
viability, T/C [5]: 107%
viability, T/C [6]: 98.9%
viability, T/C [7]: 98.2%
viability, T/C [8]: 103%
viability, T/C [9]: 100%
viability, T/C [10]: 105%
viability, T/C [11]: 107%
viability, T/C [12]: 104%
viability, T/C [13]: 93.8%
viability, T/C [14]: 101%
viability, T/C [15]: 107%
viability, T/C [16]: 104%
viability, T/C [17]: 111%
viability, T/C [18]: 94.3%
viability, T/C [19]: 110%
viability, T/C [20]: 103%
viability, T/C [21]: 106%
viability, T/C [22]: 122%
viability, T/C [23]: 108%
viability, T/C [24]: 99.2%
viability, T/C [25]: 118%
viability, T/C [26]: 110%
viability, T/C [27]: 113%
viability, T/C [28]: 109%
viability, T/C [29]: 116%
viability, T/C [30]: 107%
viability, T/C [31]: 115%
viability, T/C [32]: 114%
viability, T/C [33]: 118%
viability, T/C [34]: 117%
viability, T/C [35]: 119%
viability, T/C [36]: 105%

COc1ccc([C@@H](O)c2cc(-c3ncnc4cc(N5CCOCC5)ccc34)c(F)cc2Cl)nn1 + Cc1cccc(N(C)C(=O)C2C(O)CCN2c2nc(C)cc(C(F)(F)F)c2C#N)c1
pIC50 (second compound 0.0316 µM): < 5.00
pIC50 (second compound 0.1 µM): < 5.00
pIC50 (second compound 0.316 µM): < 5.00
pIC50 (second compound 1 µM): < 5.00
pIC50 (second compound 3.16 µM): < 5.00
pIC50 (second compound 10 µM): < 5.00
viability, T/C [1]: 105%
viability, T/C [2]: 114%
viability, T/C [3]: 101%
viability, T/C [4]: 92.5%
viability, T/C [5]: 70.2%
viability, T/C [6]: 56.4%
viability, T/C [7]: 104%
viability, T/C [8]: 99%
viability, T/C [9]: 102%
viability, T/C [10]: 95.5%
viability, T/C [11]: 71.1%
viability, T/C [12]: 58%
viability, T/C [13]: 107%
viability, T/C [14]: 99.8%
viability, T/C [15]: 103%
viability, T/C [16]: 91.8%
viability, T/C [17]: 76.2%
viability, T/C [18]: 55%
viability, T/C [19]: 109%
viability, T/C [20]: 105%
viability, T/C [21]: 107%
viability, T/C [22]: 87.1%
viability, T/C [23]: 71.5%
viability, T/C [24]: 53.3%
viability, T/C [25]: 112%
viability, T/C [26]: 101%
viability, T/C [27]: 108%
viability, T/C [28]: 87.7%
viability, T/C [29]: 74.7%
viability, T/C [30]: 58.4%
viability, T/C [31]: 112%
viability, T/C [32]: 99.9%
viability, T/C [33]: 99.3%
viability, T/C [34]: 84.5%
viability, T/C [35]: 64.7%
viability, T/C [36]: 59.8%

CC1COCCN1c1cc(C2(S(C)(=N)=O)CC2)nc(-c2ccnc3[nH]ccc23)n1 (stereo unspecified) + COC1C(OC(N)=O)C(O)C(Oc2ccc3c(O)c(NC(=O)c4ccc(O)c(CC=C(C)C)c4)c(=O)oc3c2C)OC1(C)C
pIC50 (second compound 0.0316 µM): 5.22
pIC50 (second compound 0.1 µM): 5.22
pIC50 (second compound 0.316 µM): 5.14
pIC50 (second compound 1 µM): 5.21
pIC50 (second compound 3.16 µM): 5.21
pIC50 (second compound 10 µM): 5.22
viability, T/C [1]: 102%
viability, T/C [2]: 104%
viability, T/C [3]: 105%
viability, T/C [4]: 102%
viability, T/C [5]: 77.1%
viability, T/C [6]: 28.1%
viability, T/C [7]: 107%
viability, T/C [8]: 114%
viability, T/C [9]: 101%
viability, T/C [10]: 101%
viability, T/C [11]: 71.8%
viability, T/C [12]: 32.8%
viability, T/C [13]: 103%
viability, T/C [14]: 110%
viability, T/C [15]: 116%
viability, T/C [16]: 105%
viability, T/C [17]: 81.1%
viability, T/C [18]: 38.3%
viability, T/C [19]: 127%
viability, T/C [20]: 104%
viability, T/C [21]: 109%
viability, T/C [22]: 109%
viability, T/C [23]: 68.2%
viability, T/C [24]: 37%
viability, T/C [25]: 118%
viability, T/C [26]: 99.9%
viability, T/C [27]: 101%
viability, T/C [28]: 97.2%
viability, T/C [29]: 75.8%
viability, T/C [30]: 30.9%
viability, T/C [31]: 114%
viability, T/C [32]: 97%
viability, T/C [33]: 104%
viability, T/C [34]: 93.9%
viability, T/C [35]: 74%
viability, T/C [36]: 31.2%
